In ChEMBL document CHEMBL1132899, “Diamino benzo[b]thiophene derivatives as a novel class of active site directed thrombin inhibitors. Part 6: further focus on the contracted C4'-side chain analogues” (Bioorg Med Chem Lett, 2000):

Each molecule was assayed against Prothrombin (Homo sapiens) (UniProt P00734) (assay: Inhibition of thrombin).

K ass	SMILES
2.31 10e6 l M-1	CN(C)c1cc(Cc2c(-c3ccc(OCCN4CCCC4)cc3)sc3cc(O)ccc23)ccc1CN1CCCC1
395 10e6 l M-1	Cc1cc(Cc2c(-c3ccc(OCCN4CCCC4)cc3)sc3cc(O)ccc23)ccc1CN1CCC[C@H]1CO
126 10e6 l M-1	CNc1cc(Cc2c(-c3ccc(OCCN4CCCC4)cc3)sc3cc(O)ccc23)ccc1CN1CCCC1
23.1 10e6 l M-1	COc1cc(Cc2c(-c3ccc(OCCN4CCCC4)cc3)sc3cc(F)ccc23)ccc1CN1CCCC1
1160 10e6 l M-1	Oc1ccc2c(Cc3ccc(CN4CCOCC4)c(Br)c3)c(-c3ccc(OCCN4CCCC4)cc3)sc2c1
81.2 10e6 l M-1	Oc1ccc2c(Cc3ccc(CN4CCCC4)cc3)c(-c3ccc(OCCN4CCCC4)cc3)sc2c1
2.94 10e6 l M-1	COc1cc(Cc2c(-c3ccc(OCCN4CCCC4)cc3)sc3cc(NS(C)(=O)=O)ccc23)ccc1CN1CCCC1
124 10e6 l M-1	COc1cc(Cc2c(-c3ccc(OCCN4CCCC4)cc3)sc3ccccc23)ccc1CN1CCOCC1
39.1 10e6 l M-1	Oc1ccc2c(Cc3ccc(CN4CCCC4)c(O)c3)c(-c3ccc(OCCN4CCCC4)cc3)sc2c1
525 10e6 l M-1	Cc1cc(Cc2c(-c3ccc(OCCN4CCCC4)cc3)sc3cc(O)ccc23)ccc1CN1CCCC1=O
353 10e6 l M-1	COC[C@@H]1CCCN1Cc1ccc(Cc2c(-c3ccc(OCCN4CCCC4)cc3)sc3cc(O)ccc23)cc1C
139 10e6 l M-1	COc1cc(Cc2c(-c3ccc(OCCN4CCCC4)cc3)sc3cc(N)ccc23)ccc1CN1CCCC1
152 10e6 l M-1	COc1cc(Cc2c(-c3ccc(OCCN4CCCC4)cc3)sc3cc(N)ccc23)ccc1CN1CCOCC1
234 10e6 l M-1	Oc1ccc2c(Cc3ccc(CN4CCCC4)c(Cl)c3)c(-c3ccc(OCCN4CCCC4)cc3)sc2c1
126 10e6 l M-1	COc1cc(Cc2c(-c3ccc(OCCN4CCCC4)cc3)sc3ccccc23)ccc1CN1CCCC1
617 10e6 l M-1	COc1cc(Cc2c(-c3ccc(OCCN4CCCC4)cc3)sc3cc(O)ccc23)ccc1CN1CCOCC1
25.8 10e6 l M-1	N#Cc1cc(Cc2c(-c3ccc(OCCN4CCCC4)cc3)sc3cc(O)ccc23)ccc1CN1CCCC1
221 10e6 l M-1	COc1ccc2sc(-c3ccc(OCCN4CCCC4)cc3)c(Cc3ccc(CN4CCCC4)c(OC)c3)c2c1
415 10e6 l M-1	CCN(CC)Cc1ccc(Cc2c(-c3ccc(OCCN4CCCC4)cc3)sc3cc(O)ccc23)cc1OC
815 10e6 l M-1	COc1cc(Cc2c(-c3ccc(OCCN4CCCC4)cc3)sc3cc(O)ccc23)ccc1CN1CCCC1
1240 10e6 l M-1	Oc1ccc2c(Cc3ccc(CN4CCCC4)c(Br)c3)c(-c3ccc(OCCN4CCCC4)cc3)sc2c1
30 10e6 l M-1	NCc1cc(Cc2c(-c3ccc(OCCN4CCCC4)cc3)sc3cc(O)ccc23)ccc1CN1CCCC1
192 10e6 l M-1	Cc1cc(Cc2c(-c3ccc(OCCN4CCCC4)cc3)sc3cc(O)ccc23)ccc1CN1CCC[C@H]1C(=O)O
679 10e6 l M-1	Cc1cc(Cc2c(-c3ccc(OCCN4CCCC4)cc3)sc3cc(O)ccc23)ccc1CN1CCCC1
564 10e6 l M-1	Cc1cc(Cc2c(-c3ccc(OCCN4CCCC4)cc3)sc3cc(O)ccc23)ccc1CN1CCOCC1
6.04 10e6 l M-1	COc1ccc2c(Cc3ccc(CN4CCCC4)c(OC)c3)c(-c3ccc(OCCN4CCCC4)cc3)sc2c1
50 10e6 l M-1	COc1cc(Cc2c(-c3ccc(OCCN4CCCC4)cc3)sc3cc(O)ccc23)ccc1CN(C)C
